Data taken from patent US20040235733A1, “Methods and reagents for reducing polyglutamine toxicity” (priority 2003, published 2004).
“Also recorded” adds a separate entry of the source.

Biological target: T1, CRM-1 export receptor (Mus musculus, UniProt Q6P5F9)
T1 construct: NIH-3T3 cells were transfected with the indicated GFP reporter constructs; endogenous in cells; host or cells: NIH-3T3
Assay: Leptomycin B Nuclear Export Signal Assay (GFP reporter localization by confocal microscopy)
Assay type: cell-based
Settings: NIH-3T3 cells, 24 hrs post-transfection, 200 nM Leptomycin B for 2 hrs
Description: The Leptomycin B Nuclear Export Signal Assay used NIH-3T3 cells grown on glass coverslips (Fisher) and transfected using Lipofectamine 2000 according to the manufacturers protocol. Cells 24 hrs post-transfection were treated with 200 nM Leptomycin B (Sigma) or DMSO (Mock) for 2 hrs. Cells were fixed with 3% PFA and mounted using ProLong (Molecular Probes) mounting medium. Confocal microscopy was performed on a Zeiss LSM 510 confocal system using an Axiovert 100 M microscope and a Plan/Apochromat 100×/Oil objective.

T1 sequence (Q6P5F9 whole entry): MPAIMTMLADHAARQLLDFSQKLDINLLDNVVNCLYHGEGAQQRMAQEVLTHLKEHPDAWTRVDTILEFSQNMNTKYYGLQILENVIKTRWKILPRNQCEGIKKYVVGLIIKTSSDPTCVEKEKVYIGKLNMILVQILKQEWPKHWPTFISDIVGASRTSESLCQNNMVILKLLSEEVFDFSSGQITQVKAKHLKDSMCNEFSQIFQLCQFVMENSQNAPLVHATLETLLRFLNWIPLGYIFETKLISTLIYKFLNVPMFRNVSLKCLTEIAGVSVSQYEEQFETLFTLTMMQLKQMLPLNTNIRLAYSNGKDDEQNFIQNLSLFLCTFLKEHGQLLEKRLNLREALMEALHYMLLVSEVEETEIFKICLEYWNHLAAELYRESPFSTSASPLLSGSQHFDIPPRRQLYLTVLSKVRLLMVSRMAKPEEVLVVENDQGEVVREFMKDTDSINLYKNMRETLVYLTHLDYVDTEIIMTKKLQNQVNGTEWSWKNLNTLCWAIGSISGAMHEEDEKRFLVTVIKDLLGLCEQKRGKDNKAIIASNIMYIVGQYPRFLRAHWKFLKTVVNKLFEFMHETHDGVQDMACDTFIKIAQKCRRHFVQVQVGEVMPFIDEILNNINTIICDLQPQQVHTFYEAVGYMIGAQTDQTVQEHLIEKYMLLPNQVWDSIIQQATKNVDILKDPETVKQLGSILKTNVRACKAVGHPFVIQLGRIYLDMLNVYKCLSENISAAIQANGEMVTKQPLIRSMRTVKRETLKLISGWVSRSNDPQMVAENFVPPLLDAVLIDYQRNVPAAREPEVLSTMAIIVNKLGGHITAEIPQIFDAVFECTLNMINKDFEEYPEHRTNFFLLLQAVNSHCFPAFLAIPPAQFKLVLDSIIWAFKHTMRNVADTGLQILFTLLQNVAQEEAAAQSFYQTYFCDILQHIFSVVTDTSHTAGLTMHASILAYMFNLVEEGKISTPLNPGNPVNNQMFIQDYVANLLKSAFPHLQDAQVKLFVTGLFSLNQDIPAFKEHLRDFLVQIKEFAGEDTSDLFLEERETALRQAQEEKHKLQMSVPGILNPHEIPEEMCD

Compound: CCC(=C/[C@H](C)C/C=C/C(C)=C/[C@@H](C)C(=O)[C@@H](C)[C@H](O)[C@@H](C)C/C(C)=C/C(=O)O)/C=C/[C@@H]1OC(=O)C=C[C@@H]1C [LMB, Leptomycin B]
- effect on localization of GFP or NLS-GFP: unaffected
- effect on nuclear exclusion (cytoplasmic localization) of Htt 1-17-NLS-GFP: unaffected; also recorded: no effect
- effect on nuclear exclusion of control NES-GFP: quite sensitive; also recorded: efficiently reversed
